Data as given in patent US7893288B2, “Poly-halogenated triazapentadiene compositions” (Board of Regents, The University of Texas System, priority 2007, dated 2011).
Values joined by “and” are separate entries in the source; they are usually repeats but may differ in a detail not shown here. Equal values may be shown once.

Columns and labels:
Assay type in all cases: cell-based
Bacillus subtilis W168 [1] = assay: Disk sensitivity test (modified Kirby-Bauer), B. subtilis;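 further: Compound-loaded filter disks on LB agar plates seeded with a bacterial lawn, plates held overnight at 37 °C, then the clear zone around each disk measured, compounds in DMSO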
Protocol: (§1) Filter disks were provided as sterile filter paper (about 6 mm in diameter) and spotted with 20 μL of a selected compound. Each compound was initially dissolved in dimethylsulfoxide (DMSO); any subsequent dilutions were also made in DMSO. Each filter was placed on an LB agar plate spread with 100 μL of a bacterial culture that had been grown overnight in suitable LB broth. Plates were incubated overnight at 37° C., after which, the extent of growth inhibition around each filter disk was measured. Bacterial strains included Staphylococcus aureus (ATCC 25923), Pseudomonas aeruginosa PAO1, Bacillus subtilis W168 and Escherichia coli HB101. […] The latter two strains are non-pathogenic Gram-positive and Gram-negative bacterial strains, respectively.

[2] = tested on: Pseudomonas aeruginosa PAO1; assay: Minimum inhibitory concentration in LB broth, P. aeruginosa; conditions: for Relative to AgNO3: efficacy per mole from MIC values
Escherichia coli HB101 [3] = assay: Disk sensitivity test (modified Kirby-Bauer), E. coli;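 further: filter disk loaded with compound in DMSO laid on an LB agar bacterial lawn, kept overnight at 37 °C, then the inhibition zone around the disk is measured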
[4] = tested on: Gram positive and Gram negative bacteria; assay: Antimicrobial activity, summary of TABLES 16-18
Protocol: The new class of fluorinated triazapentadiene compounds with and without metal complexation as described herein were analyzed for antibacterial activity against several bacterial strains (both Gram positive and Gram negative). Methods for antimicrobial analysis included a modified Kirby-Bauer method and a determination of their minimum inhibitory concentrations. In brief, the modified Kirby-Bauer method relied on placement of a filter disk impregnated with a desired compound on a solid growth medium. Bacteria were grown to a confluent lawn and the extent of growth inhibition was measured (e.g., as an extent/percentage of a clear zone on the disk and/or solid medium).
For MIC assessment, compounds were initially dissolved in DMSO and serial dilutions of soluble compounds were made in LB broth.

[5] = tested on: Staphylococcus aureus (ATCC 25923); assay: Disk sensitivity test (modified Kirby-Bauer), S. aureus;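 further: Compound-loaded filter disks on LB agar plates seeded with a confluent bacterial lawn, compound dissolved in DMSO, plates kept overnight at 37 °C, then inhibition zone around disk measured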
Protocol: as §1

[6] = tested on: Staphylococcus aureus (ATCC 25923); assay: Minimum inhibitory concentration in LB broth, S. aureus; conditions: for Relative to AgNO3: efficacy per mole from MIC values
[7] = tested on: Pseudomonas aeruginosa PAO1; assay: Disk sensitivity test (modified Kirby-Bauer), P. aeruginosa;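 further: Compound-loaded filter disks on LB agar lawns, DMSO as solvent, zone of inhibition around each disk read after overnight incubation at 37 °C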
Protocol: as §1

Escherichia coli HB101 [8] = assay: Minimum inhibitory concentration in LB broth, E. coli; conditions: for Relative to AgNO3: efficacy per mole from MIC values;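 on all read-outs here: broth dilution MIC, test compounds first taken up in DMSO, then serially diluted in LB medium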
Bacillus subtilis W168 [9] = assay: Minimum inhibitory concentration in LB broth, B. subtilis; conditions: for Relative to AgNO3: efficacy per mole from MIC values

FC(F)(F)C(F)(F)C(F)(F)C(=Nc1c(Cl)cccc1Cl)N=C(Nc1c(Cl)cccc1Cl)C(F)(F)C(F)(F)C(F)(F)F [[N{(C3F7)C(2,6-Cl2C6H3)N}2]H]
Diameter of the zone of growth inhibition (Bacillus subtilis W168 [1]; 5.7 × 10^0 mM): 19.0 mm | Diameter of the zone of growth inhibition (Bacillus subtilis W168 [1]; 5.7 × 10^1 mM): 21.0 mm | Diameter of the zone of growth inhibition (Bacillus subtilis W168 [1]; 5.7 × 10^−1 mM): 18.5 mm | Diameter of the zone of growth inhibition (Bacillus subtilis W168 [1]; 5.7 × 10^−2 mM): 19.0 mm | Diameter of the zone of growth inhibition (Bacillus subtilis W168 [1]; 5.7 × 10^−3 mM): 13.0 mm | Diameter of the zone of growth inhibition (Bacillus subtilis W168 [1]; 5.7 × 10^−4 mM): 8.5 mm | Diameter of the zone of growth inhibition (Bacillus subtilis W168 [1]; 5.7 × 10^−5 mM): 7.0 mm | Diameter of the zone of growth inhibition (Bacillus subtilis W168 [1]; 5.7 × 10^−6 mM): 7.5 mm | Diameter of the zone of growth inhibition (Bacillus subtilis W168 [1]; 5.7 × 10^−7 mM): 6.0 (NZ) mm | MIC [2]: >16671.80 μg/ml and >23.92 mM | Relative to AgNO3 [2]: <7.69 × 10^−4 | Diameter of the zone of growth inhibition (Escherichia coli HB101 [3]; 5.7 × 10^0 mM): 8.0 mm | Diameter of the zone of growth inhibition (Escherichia coli HB101 [3]; 5.7 × 10^1 mM): 9.0 mm | Diameter of the zone of growth inhibition (Escherichia coli HB101 [3]; 5.7 × 10^−1 mM): 8.0 mm | Diameter of the zone of growth inhibition (Escherichia coli HB101 [3]; 5.7 × 10^−2 mM): 8.0 mm | Diameter of the zone of growth inhibition (Escherichia coli HB101 [3]; 5.7 × 10^−3 mM): 6.0 (NZ) mm | antimicrobial activity (in words) [4]: Effective | Diameter of the zone of growth inhibition ([5]; 5.7 × 10^0 mM): 20.0 mm | Diameter of the zone of growth inhibition ([5]; 5.7 × 10^1 mM): 13.0 mm | Diameter of the zone of growth inhibition ([5]; 5.7 × 10^−1 mM): 16.0 mm | Diameter of the zone of growth inhibition ([5]; 5.7 × 10^−2 mM): 15.0 mm | Diameter of the zone of growth inhibition ([5]; 5.7 × 10^−3 mM): 7.0 mm | Diameter of the zone of growth inhibition ([5]; 5.7 × 10^−4 mM): 7.0 mm | Diameter of the zone of growth inhibition ([5]; 5.7 × 10^−5 mM): 8.0 mm | Diameter of the zone of growth inhibition ([5]; 5.7 × 10^−6 mM): 6.0 (NZ) mm | Diameter of the zone of growth inhibition ([5]; 5.7 × 10^−7 mM): 6.0 (NZ) mm | MIC [6]: 7.80 μg/ml and 2.12 × 10^−3 mM | Relative to AgNO3 [6]: 6.57 | Diameter of the zone of growth inhibition ([7]; 5.7 × 10^0 mM): 8.0 mm | Diameter of the zone of growth inhibition ([7]; 5.7 × 10^1 mM): 9.0 mm | Diameter of the zone of growth inhibition ([7]; 5.7 × 10^−1 mM): 8.0 mm | Diameter of the zone of growth inhibition ([7]; 5.7 × 10^−2 mM): 8.0 mm | Diameter of the zone of growth inhibition ([7]; 5.7 × 10^−3 mM): 7.0 mm | MIC (Escherichia coli HB101 [8]): >16671.80 μg/ml and >23.92 mM | Relative to AgNO3 (Escherichia coli HB101 [8]): <2.46 × 10^−3 | MIC (Bacillus subtilis W168 [9]): 4.27 × 10^−1 μg/ml and 4.59 × 10^−4 mM | Relative to AgNO3 (Bacillus subtilis W168 [9]): 320.26

Fc1cccc(C(F)(F)F)c1N=C(N=C(Nc1c(F)cccc1C(F)(F)F)C(F)(F)C(F)(F)C(F)(F)F)C(F)(F)C(F)(F)C(F)(F)F [[N{(C3F7)C(2-F,6-(CF3)C6H3)N}2]H]
Diameter of the zone of growth inhibition (Bacillus subtilis W168 [1]; 5.7 × 10^0 mM): 85.0 mm | Diameter of the zone of growth inhibition (Bacillus subtilis W168 [1]; 5.7 × 10^1 mM): 100.0 mm | Diameter of the zone of growth inhibition (Bacillus subtilis W168 [1]; 5.7 × 10^−1 mM): 50.0 mm | Diameter of the zone of growth inhibition (Bacillus subtilis W168 [1]; 5.7 × 10^−2 mM): 30.0 mm | Diameter of the zone of growth inhibition (Bacillus subtilis W168 [1]; 5.7 × 10^−3 mM): 13.5 mm | Diameter of the zone of growth inhibition (Bacillus subtilis W168 [1]; 5.7 × 10^−4 mM): 7.0 mm | Diameter of the zone of growth inhibition (Bacillus subtilis W168 [1]; 5.7 × 10^−5 mM): 8.0 mm | Diameter of the zone of growth inhibition (Bacillus subtilis W168 [1]; 5.7 × 10^−6 mM): 8.0 mm | Diameter of the zone of growth inhibition (Bacillus subtilis W168 [1]; 5.7 × 10^−7 mM): 7.5 mm | MIC [2]: 2912.70 μg/ml and 3.98 mM | Relative to AgNO3 [2]: 4.62 × 10^−3 | Diameter of the zone of growth inhibition (Escherichia coli HB101 [3]; 5.7 × 10^0 mM): 8.5 mm | Diameter of the zone of growth inhibition (Escherichia coli HB101 [3]; 5.7 × 10^1 mM): 9.0 mm | Diameter of the zone of growth inhibition (Escherichia coli HB101 [3]; 5.7 × 10^−1 mM): 8.0 mm | Diameter of the zone of growth inhibition (Escherichia coli HB101 [3]; 5.7 × 10^−2 mM): 7.0 mm | Diameter of the zone of growth inhibition (Escherichia coli HB101 [3]; 5.7 × 10^−3 mM): 7.0 mm | Diameter of the zone of growth inhibition (Escherichia coli HB101 [3]; 5.7 × 10^−4 mM): 7.0 mm | Diameter of the zone of growth inhibition (Escherichia coli HB101 [3]; 5.7 × 10^−5 mM): 7.0 mm | antimicrobial activity (in words) [4]: Effective | Diameter of the zone of growth inhibition ([5]; 5.7 × 10^0 mM): 36.0 mm | Diameter of the zone of growth inhibition ([5]; 5.7 × 10^1 mM): 47.5 mm | Diameter of the zone of growth inhibition ([5]; 5.7 × 10^−1 mM): 34.0 mm | Diameter of the zone of growth inhibition ([5]; 5.7 × 10^−2 mM): 9.0 mm | Diameter of the zone of growth inhibition ([5]; 5.7 × 10^−3 mM): 8.0 mm | Diameter of the zone of growth inhibition ([5]; 5.7 × 10^−4 mM): 6.0 (NZ) mm | Diameter of the zone of growth inhibition ([5]; 5.7 × 10^−5 mM): 6.0 (NZ) mm | MIC [6]: 1.55 μg/ml and 1.06 × 10^−3 mM | Relative to AgNO3 [6]: 34.71 | Diameter of the zone of growth inhibition ([7]; 5.7 × 10^0 mM): 8.5 mm | Diameter of the zone of growth inhibition ([7]; 5.7 × 10^1 mM): 9.0 mm | Diameter of the zone of growth inhibition ([7]; 5.7 × 10^−1 mM): 8.0 mm | Diameter of the zone of growth inhibition ([7]; 5.7 × 10^−2 mM): 8.0 mm | Diameter of the zone of growth inhibition ([7]; 5.7 × 10^−3 mM): 8.0 mm | Diameter of the zone of growth inhibition ([7]; 5.7 × 10^−4 mM): 7.0 mm | Diameter of the zone of growth inhibition ([7]; 5.7 × 10^−5 mM): 6.0 (NZ) mm | MIC (Escherichia coli HB101 [8]): 2912.70 μg/ml and 3.98 mM | Relative to AgNO3 (Escherichia coli HB101 [8]): 1.48 × 10^−2 | MIC (Bacillus subtilis W168 [9]): 1.60 × 10^−1 μg/ml and 2.19 × 10^−4 mM | Relative to AgNO3 (Bacillus subtilis W168 [9]): 671.23
